# Test results: the supplement of paper PMC5579334
# Tests used:
# [1] = tested on: HS-PSS; test: drug sensitivity score (DSS, CellTox-Green cytotoxicity, 72 h) (DSS (dimensionless)); higher = more cytotoxic; extreme values may be limits of the assay
# How it was run: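 MPNST cell lines and primary human Schwann cells were incubated 72 h at 37 °C in 384-well plates holding five 10-fold compound dilutions. CellTox-Green was added before seeding at a final 1:1000 dilution and reported fluorescence from DNA released by disrupted cells. Signals were scaled to vehicle and positive-control wells, and cultures failing plate quality control were dropped. Drug sensitivity score and relative IC50 come from four-parameter logistic fits, with IC50 censored at the top concentration.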
# [2] = tested on: YST-1; test: % inhibition of CellTiter-Glo viability at highest tested concentration (72 h), relative to DMSO and benzethonium chloride controls; higher = more inhibition
# How it was run: (§1)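 Viability was scored by CellTiter-Glo ATP luminescence, scaled from vehicle to positive-control wells, with duplicates averaged where present. The cells, MPNST lines and primary human Schwann cells at 750–1000 per well, sat 72 h at 37 °C, 5% CO2, in 384-well plates preprinted with each compound at five concentrations in 10-fold steps. Four-parameter logistic fits were run on the data. These fits give drug sensitivity score and relative IC50 censored at the top concentration, and percent inhibition is reported at the top concentration.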
# [3] = tested on: HS-PSS; test: as above
# How it was run: as §1
# [4] = tested on: HS-Sch-2; test: as above
# How it was run: as §1
# [5] = tested on: YST-1; test: drug sensitivity score (DSS, CellTiter-Glo viability, 72 h) (DSS (dimensionless)); higher = more sensitive; extreme values may be limits of the assay
# How it was run: as §1
# [6] = tested on: HS-PSS; test: as above
# How it was run: as §1
# [7] = tested on: HS-Sch-2; test: as above
# How it was run: as §1
SMILES,drug sensitivity score [1],% inhibition [2] [%],% inhibition [3] [%],% inhibition [4] [%],drug sensitivity score [5],drug sensitivity score [6],drug sensitivity score [7]
COc1ccc(CCc2nc3cc(-c4c(C)noc4C)ccc3n2C[C@H](C)N2CCOCC2)cc1Cl [SGC-CBP30] (max concentration tested 25000 nM),0,62,40.4,60.7,5.72,1.59,5.7
COc1ccc(-c2ccc3ncc4c(c3c2)n(-c2ccc(N3CCNCC3)c(C(F)(F)F)c2)c(=O)n4C)cn1 [NVP-BGT226] (max concentration tested 1000 nM),3.94,99.5,99.1,98.2,19.7,15.3,21.4
COc1cc(C(=O)O)ccc1NC(=O)[C@@H]1N[C@@H](CC(C)(C)C)[C@](C#N)(c2ccc(Cl)cc2F)[C@H]1c1cccc(Cl)c1F [Idasanutlin] (max concentration tested 10000 nM),0,98.6,26.1,-12.1,25.1,5.43,0
CC(=O)c1cnc2ccc(-c3cc(Cl)c(O)c(Cl)c3)nc2c1N[C@H]1CC[C@H](CN(C)C)CC1 [OTSSP167] (max concentration tested 1000 nM),0.29,100,83.1,101,23.8,4.33,18.5
Cc1cc(-c2ncc(CC(=O)Nc3ccc(-c4cnccn4)cn3)cc2C)ccn1 [NVP-LGK974] (max concentration tested 10000 nM),0,1.59,45.4,52.2,0,3.51,3
C#Cc1cccc(Nc2ncnc3cc4c(cc23)OCCOCCOCCO4)c1 [Icotinib] (max concentration tested 10000 nM),0,23.8,16.4,19.6,1.96,0.72,1.37
CNC(=O)c1ccc(C)c(-n2c(C)cc(OCc3ccc(F)cc3F)c(Br)c2=O)c1 (max concentration tested 1000 nM),0,38.4,8.35,4,5.16,0,0
CC(C)[C@H](C(=O)Nc1ccc(C(=O)NO)cc1)c1ccccc1 [AR-42] (max concentration tested 10000 nM),5,100,88.1,101,17.8,10,10.9
O=C(Nc1ccc(-c2ccnc(Nc3ccc(N4CCOCC4)cc3)n2)cc1)[C@H]1CCCN1 [XL019] (max concentration tested 10000 nM),0,24.9,32.7,22.7,1.13,1.67,1.09
CN(C)C(=O)c1ccc(S(=O)(=O)c2ccc(NC(=O)[C@@](C)(O)C(F)(F)F)c(Cl)c2)cc1 [AZD7545] (max concentration tested 10000 nM),0,2.29,57,17.4,0,2.45,0.76
C[C@H]1Oc2cc(cnc2N)-c2c(nn(C)c2C#N)CN(C)C(=O)c2ccc(F)cc21 (max concentration tested 1000 nM),0,3.35,53.9,14.9,0,12.3,0.53
CNC(=O)c1ccc(-c2cnc3ncc(Cc4ccc5ncccc5c4)n3n2)cc1F [NVP-INC280] (max concentration tested 1000 nM),0,12.3,7.48,6.7,0.19,0,1.29
CCCCNc1ncc(C(=O)NCc2ccc(-n3ccnc3)cc2)c(NC2CCC(O)CC2)n1 (stereo not given) [UNC2881] (max concentration tested 2500 nM),0,38.9,37,9.68,3.6,3.51,0
CN1CC[C@@H](NC(=O)Nc2ccc(C#N)cc2)C[C@@H]1c1nc2ccccc2[nH]1 [Glasdegib] (max concentration tested 1000 nM),0,1.47,21.2,20.6,0,2.26,1.4
COc1ccc(Cn2ccc3ccc(C(=O)NO)cc32)cc1 (max concentration tested 10000 nM),0,56.2,18.1,46.8,5.14,0.33,2.02
CCN(c1cc(-c2ccc(CN3CCOCC3)cc2)cc(C(=O)NCc2c(C)cc(C)[nH]c2=O)c1C)C1CCOCC1 [Tazemetostat] (max concentration tested 10000 nM),0,0.37,10.9,12.6,0,0.52,0.07
O=C(O)c1ccc2c(c1)nc(Nc1cccc(Cl)c1)c1ccncc12 [Silmitasertib] (max concentration tested 10000 nM),0,97.4,66.2,52.4,6.93,4.36,2.47
CCN(CC)CCN(Cc1ccc(-c2ccc(C(F)(F)F)cc2)cc1)C(=O)Cn1c(SCc2ccc(F)cc2)nc(=O)c2c1CCC2 [Darapladib] (max concentration tested 1000 nM),3.71,19.5,53.3,33,1.09,3.85,2.38

SMILES,drug sensitivity score [1],% inhibition [2] [%],% inhibition [3] [%],% inhibition [4] [%],drug sensitivity score [5],drug sensitivity score [6],drug sensitivity score [7]
COc1cc(NS(C)(=O)=O)ccc1Nc1c2ccccc2nc2ccccc12 [Amsacrine] (max concentration tested 10000 nM),1.27,86.6,55,81.6,15.6,5.76,11.1
Oc1ncc(N(CCCl)CCCl)c(O)n1 [Uramustine] (max concentration tested 10000 nM),0,1.38,-0.55,3,0,0,0
N#CC(c1ccnc(OCc2ccc(CN3CCOCC3)cc2)n1)c1nc2ccccc2s1 (stereo not given) [Bentamapimod] (max concentration tested 10000 nM),1.1,26.9,75.6,58.6,2.11,6.75,3.69
O=C(Nc1cccc(NC(=O)c2cccc(O)c2O)c1)c1cccc(O)c1O [MST-312] (max concentration tested 10000 nM),0.02,96.2,86.4,90.7,5.45,4.53,10.8
CNC(=O)CN1CCC(Oc2cc3c(Nc4cccc(Cl)c4F)ncnc3cc2OC)CC1 [Sapitinib] (max concentration tested 1000 nM),0,15.3,9.33,11.1,0.48,0,0.17
CCS(=O)(=O)N1CC(CC#N)(n2cc(-c3ncnc4[nH]ccc34)cn2)C1 [Baricitinib] (max concentration tested 2500 nM),0,-0.02,1.87,4.94,0,0,0
COc1ncc(-c2ccc3nccc(-c4ccnnc4)c3c2)cc1NS(=O)(=O)c1ccc(F)cc1F [Omipalisib] (max concentration tested 1000 nM),0,94,64.3,83.8,23.6,10.6,9.45
CN1CCN(C2CCN(C(=O)Nc3cc(Oc4ccc(NC(=O)C5(C(=O)Nc6ccc(F)cc6)CC5)c(F)c4)ccn3)CC2)CC1 [Golvatinib] (max concentration tested 2500 nM),0,17.2,23.6,19.2,1.35,0.68,0.68
O=C(NC1CCNCC1)c1n[nH]cc1NC(=O)c1c(Cl)cccc1Cl [AT7519] (max concentration tested 10000 nM),1.85,98.7,73.5,99.7,26,15.3,17.6
OC(CC1c2ccccc2-c2cncn21)C1CCCCC1 (stereo not given) [NLG919] (max concentration tested 10000 nM),0,10.1,7.55,0.68,0,0,0
CC(C)CC(=O)Nc1n[nH]c2c1CN(C(=O)C1CCN(C)CC1)C2(C)C (max concentration tested 10000 nM),2.57,99.8,83.7,101,11.8,11.5,10.2
Cc1nc(=O)c2cc(CN(C)c3ccc(C(=O)N[C@@H](CCC(=O)O)C(=O)O)s3)ccc2[nH]1 [Raltitrexed] (max concentration tested 1000 nM),0,29.9,14.7,71.5,6.69,3.16,15.1
Cc1cnc(-c2ccccc2C(C)C)nc1NCc1ccc(-n2ccnn2)cc1 [ML323] (max concentration tested 10000 nM),0,18.2,42,39.9,0.66,3.56,3.67
COC(=O)N[C@@H](C)CNc1nccc(-c2cn(C(C)C)nc2-c2cc(Cl)cc(NS(C)(=O)=O)c2F)n1 [Encorafenib] (max concentration tested 1000 nM),0,3.93,14,14.4,0,2.1,0.12
CCn1c(=O)c(-c2ccc(Cl)cc2Cl)cc2cnc(Nc3ccc(N4CCNCC4)c(F)c3)nc21 [FRAX486] (max concentration tested 5000 nM),0,-6.01,11.5,47.6,0,3.36,9.15
CCn1c(=O)c(-c2cc[nH]n2)cc2c(C)nc(N)nc21 [Voxtalisib] (max concentration tested 10000 nM),0,86.5,48.4,64.5,9.29,3.33,4.83
CC[C@H](NC(=O)[C@H](C)NC)C(=O)N1C[C@@H](O)C[C@H]1Cc1c(-c2[nH]c3cc(F)ccc3c2C[C@@H]2C[C@H](O)CN2C(=O)[C@H](CC)NC(=O)[C@H](C)NC)[nH]c2cc(F)ccc12 [Birinapant] (max concentration tested 1000 nM),0,2.35,10.7,6.12,0,0,0
